The values below are quoted from earlier work in patent publication US10849951B2, “Use of PHY906 as treatment for inflammatory bowel disease and/or irritable bowel syndrome” (priority 2007, dated 2020).

The test system of data set [1] is perineal Crohn's. To be noted: human, in vivo.
Data set [2] relates to patients. To be noted: NCI Common Toxicity criteria.
The target in data set [3] is bacterial 13-glucuronidase (Escherichia coli, UniProt P05804).
Chain of bacterial 13-glucuronidase (P05804 whole entry): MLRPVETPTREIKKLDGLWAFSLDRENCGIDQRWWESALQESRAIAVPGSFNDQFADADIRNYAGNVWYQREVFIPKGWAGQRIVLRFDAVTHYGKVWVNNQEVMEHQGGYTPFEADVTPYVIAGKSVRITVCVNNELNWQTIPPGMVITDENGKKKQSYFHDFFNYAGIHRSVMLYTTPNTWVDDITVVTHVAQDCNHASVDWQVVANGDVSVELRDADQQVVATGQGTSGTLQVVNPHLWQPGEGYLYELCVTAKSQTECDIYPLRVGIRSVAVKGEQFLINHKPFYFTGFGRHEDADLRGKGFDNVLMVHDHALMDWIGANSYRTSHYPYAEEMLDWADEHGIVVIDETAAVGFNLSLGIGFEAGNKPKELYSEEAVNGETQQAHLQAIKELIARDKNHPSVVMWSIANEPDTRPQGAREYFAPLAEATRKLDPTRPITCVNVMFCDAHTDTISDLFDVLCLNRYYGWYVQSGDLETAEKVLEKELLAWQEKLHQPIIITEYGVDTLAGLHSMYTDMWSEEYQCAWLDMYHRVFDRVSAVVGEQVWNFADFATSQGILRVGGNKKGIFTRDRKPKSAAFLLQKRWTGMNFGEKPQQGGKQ

Regarding `Cc1ncc([N+](=O)[O-])n1CCO` [Metronidazole, metronidazole], the “cases in which managing perineal Crohn's is effective” value in data set [1] was “over 50%”. With `CCc1c2c(nc3ccc(OC(=O)N4CCC(N5CCCCC5)CC4)cc13)-c1cc3c(c(=O)n1C2)COC(=O)[C@]3(O)CC` [CPT-11, irinotecan], the “patients with diarrhea classified grade 3 (serious) or grade 4 (life-threatening)” value in data set [2] is listed as “about 40%”.

As to `O=c1cc(-c2ccccc2)oc2cc(O)c(O)c(O)c12` [Baicalein], the “inhibition of bacterial 13-glucuronidase” value in data set [3] is on record as “feedback inhibitor”.
